These results are taken from patent US4900719A, “Nitrosothiols as hypotensive agents” (The Ohio State University, priority 1988, dated 1990).

One data set has as its system anesthetized monkeys. As to the kind of experiment: mean arterial pressure during venous infusion in anesthetized monkeys. The format is in vivo, cynomologus monkeys (Macaca fascicularis). The procedure: (§1) Fifty milligrams of SNP (Nipride, Roche Laboratories) was reconstituted in 250 ml of 5% dextrose in water. A GSNO solution was diluted as 50 ug/ml in 5% dextrose in water. Seven mongrel dogs (18.1-31.8 kg) and seven cynomologus monkeys (Macaca fascicularis; 4.4-9.0 kg) were used in the study. The animals were given a pre-anesthetic (monkeys--Ketamine HCl, 10 mg/kg I.M.; dogs--0.2 mg/kg fentanyl and 1 mg/kg droperidol, Innovar Vet I.V.) and anesthetized with a mixture of α-chloralose (50 mg/kg) and urethane (500 mg/kg) given as an intravenous injection. The left femoral artery and vein were cannulated with heparinized saline-filled catheters. Arterial pressure was obtained from the arterial catheter using an electromedics MS-20 solid state pressure transducer and recorded on a Gould 2400 chart recorder. Randomized venous infusions of GSNO (n=7) and SNP (n=5) were made using Harvard apparatus compact infusion pump model 976. The infusion was maintained until a new steady state value for mean arterial pressure had been obtained for each infusion rate. The infusion rate was varied over the following ranges: GSNO 1.5-38.9 μg/kg/min (8 levels) and SNP 1.7-43.8 μg/kg/min (6 levels).
(§2) Intravenous administrations of GSNO or SNP in a wide range of doses decreased systematic arterial pressure in a dose related fashion. […]

The subject of data set [1] is anesthetized dogs. As to the kind of experiment: mean arterial pressure during venous infusion in anesthetized dogs. The format is in vivo, mongrel dogs. The procedure:
as §1, §2

Data set [2] has as its system anesthetized dogs and monkeys. The experiment in a line: venous infusion in anesthetized dogs and monkeys, collected animal data (response time, onset/dissipation, effective dosage). The format is in vivo. The procedure: as §1
Intravenous administrations of GSNO or SNP in a wide range of doses decreased systematic arterial pressure in a dose related fashion. FIGS. 1 and 2 show the dose-response curves for the dogs and monkeys, respectively, that occurred by SNP or GSNO administrations. In each figure (.) presents the data for SNP and (o) presents the data for GSNO. The blood pressure lowering effect of SNP and GSNO is greater in monkeys than in dogs. When 20 μg/kg/min of SNP or GSNO was administered, mean arterial pressure decreased 35-40 torr for dogs and 45 torr for monkeys. The noted response time for SNP was about 28.6±2.5 sec. and for GSNO about 33.4±6.0 sec.
From the collected animal data, it can be noted that in general the decrease in blood pressure is dosage dependent.

A short description of data set [3]: storage stability of solid GSNO (absorbance at 544 nm). The format is physicochemical. The procedure:
In air at 4° no change in the characteristic original absorbance at 544 nm was observed after 32 days. At room temperature, 75% of that absorption remained after the same period.

Data set [4] can be described thus: stability of other nitrosothiols (qualitative statement). The format is physicochemical.
Data set [5] deals with anesthetized dogs. As to the kind of experiment: arterial blood pressure after intravenous injection in anesthetized dogs (Examples 2 and 3). The format is in vivo. As to conditions: intravenous injection in dextrose.
Method: A GSNO solution was diluted as 50 ug/ml in 5% dextrose in water. […] The animals were given a pre-anesthetic (monkeys--Ketamine HCl, 10 mg/kg I.M.; dogs--0.2 mg/kg fentanyl and 1 mg/kg droperidol, Innovar Vet I.V.) and anesthetized with a mixture of α-chloralose (50 mg/kg) and urethane (500 mg/kg) given as an intravenous injection. The left femoral artery and vein were cannulated with heparinized saline-filled catheters. Arterial pressure was obtained from the arterial catheter using an electromedics MS-20 solid state pressure transducer and recorded on a Gould 2400 chart recorder. […] The infusion was maintained until a new steady state value for mean arterial pressure had been obtained for each infusion rate.
By following in general the procedure described for GSNO in Example 1, animal experiments are performed on a plurality of anesthetized dogs with each intravenous injection of S-Nitrosocaptopril in dextrose as well as the arterial blood pressure of the dogs being recorded.
The specific injections as well as the arterial blood pressure of the dogs are recorded.

Each structure is given as a SMILES string.

As to `N[C@@H](CCC(=O)N[C@@H](CSN=O)C(=O)NCC(=O)O)C(=O)O` [GSNO, S-nitrosoglutathione], the “blood pressure lowering (in words)” value with anesthetized monkeys (anesthetized monkeys, venous infusion, to about the same extent as SNP) is given as “significantly lowered blood pressure”; in the data set with anesthetized dogs [1] (anesthetized dogs, venous infusion, to about the same extent as SNP), “significantly lowered blood pressure”. In addition, the “decrease in mean arterial pressure” value in the data set on anesthetized monkeys (monkeys, 20 μg/kg/min venous infusion) is given as 45 torr; with anesthetized dogs [1] (dogs, 20 μg/kg/min venous infusion) it was 35-40 torr. Also, the “onset and dissipation of effect” value in data set [2] (anesthetized dogs and monkeys, compared with SNP) was “essentially the same as obtained with SNP”. The “effective dosage to significantly lower arterial pressure” value in data set [2] (infusion administration, from the collected animal data) is reported as “at least 7 μg/1 kg animal weight/minute”. Also, the response time entry in data set [2] (venous infusion, species not stated) is given as “about 33.4±6.0 sec”. Besides, the “change in characteristic original absorbance at 544 nm” value in data set [3] (in air at 4°, after 32 days) was “no change”. Also, the “absorption at 544 nm remaining” value in data set [3] (room temperature, after 32 days) amounted to 75%. The “effect of exclusion of light and air on stability” value in data set [3] (storage for more than 30 days) was “virtually no noticeable effect”.
For `C[C@H](CSN=O)C(=O)N1CCC[C@H]1C(=O)O` [S-Nitrosocaptopril, D-(S-nitroso) 3-mercaptomethylpropionyl-L-proline], the “stability (in words)” value in data set [4] is listed as “quite stable”. Moreover, in the data set with anesthetized dogs [5], the “lowering of arterial blood pressure (in words)” value was “Significant lowering of arterial blood pressure”.
